Values joined by “and” are separate entries in the source; they are usually repeats but may differ in a detail not shown here. Identical values can stand only once.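 In this assay, cells in 96-well plates receive the compound at five concentrations for 48 hours. Endpoints are linearly interpolated between the surrounding concentrations. GI50: concentration for 50% inhibition of growth. TGI marks complete inhibition of growth.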
Tests used:
Experiment in all cases: NCI anticancer screen, dose series, 48 h
786-0 renal = test system: 786-0 renal
CCRF-CEM leukemia = test system: CCRF-CEM leukemia
NCI/ADR-RES ovarian = test system: NCI/ADR-RES ovarian
M14 melanoma = test system: M14 melanoma
MOLT-4 leukemia = test system: MOLT-4 leukemia
SNB-75 CNS = test system: SNB-75 CNS
OVCAR-8 ovarian = test system: OVCAR-8 ovarian
MDA-MB-435 = test system: MDA-MB-435
SF-295 CNS = test system: SF-295 CNS
MDA-MB-231 breast = test system: MDA-MB-231 breast

Structure (SMILES)	GI50 (786-0 renal)	TGI (786-0 renal)	GI50 (CCRF-CEM leukemia)	TGI (CCRF-CEM leukemia)	GI50 (NCI/ADR-RES ovarian) [µM]	TGI (NCI/ADR-RES ovarian) [µM]	GI50 (M14 melanoma)	TGI (M14 melanoma) [µM]	GI50 (MOLT-4 leukemia)	TGI (MOLT-4 leukemia)	GI50 (SNB-75 CNS) [µM]	TGI (SNB-75 CNS) [µM]	GI50 (OVCAR-8 ovarian)	TGI (OVCAR-8 ovarian)	GI50 (MDA-MB-435)	TGI (MDA-MB-435)	GI50 (SF-295 CNS) [µM]	TGI (SF-295 CNS) [µM]	GI50 (MDA-MB-231 breast)	TGI (MDA-MB-231 breast) [µM]
CCN(CC)c1ccc(/C=N/NC(=O)c2ccccc2Nc2ccnc(C(F)(F)F)c2)c(O)c1	0.183 µM	0.984 µM	0.055 µM	1.35 µM	0.273	14	0.175 µM	1.19	0.102 µM	4.2 µM	0.41	> 100	0.22 µM	> 100 µM	0.428 µM	> 100 µM	0.184	6.27	0.261 µM	> 100
CCCC(=O)Nc1c(I)cc(I)c(CC(CC)C(=O)O)c1I (configuration not stated)	> 100 µM	> 100 µM	> 100 µM	> 100 µM	> 100	> 100	> 100 µM	> 100	> 100 µM	> 100 µM	> 100	> 100	> 100 µM	> 100 µM	> 100 µM	> 100 µM	> 100	> 100	> 100 µM	> 100
COc1ccc2c(c1)c(-c1ccc(-c3cn(C)c4ccc(OC)cc34)o1)cn2C	> 100 µM	> 100 µM	6.46 µM	78.4 µM	3.86	16.6	16.7 µM	> 100	> 100 µM	> 100 µM	13.6	53.7	8.02 µM	> 100 µM	32.9 µM	> 100 µM	13.4	62.6	2.37 µM	22.2
COC1C(O)CC(OC2CC(OC3CC(O[C@@H]4C(=O)c5c(cc6cc(OC7CC(OC8CC(O)C(O)C(C)O8)C(O)C(C)O7)c(C)c(O)c6c5O)CC4[C@H](OC)[C@@H](O)C(C)=O)OC(C)C3O)OC(C)C2O)OC1C (some centres not stated)	0.0219 µM	> 33.3 µM	0.0233 µM	> 33.3 µM	> 28.2	> 33.3	0.0202 µM	3.91	0.00749 µM	0.34 µM	0.0184	3.32	0.0217 µM	> 33.3 µM	0.0156 µM	7.07 µM	0.00752	> 33.3	0.051 µM	> 33.3
O=S(=O)(NCCNc1cc(-c2cn(-c3ccccc3)nc2-c2cccc(O)c2)ccn1)c1ccc(Br)cc1	2.17 µM	7.78 µM	2.1 µM	6.06 µM	3.14	12.5	2.02 µM	5.04	2.21 µM	5.98 µM	2.03	6.94	3.47 µM	12.6 µM	1.79 µM	3.65 µM	1.88	3.94	1.9 µM	4.59
NC(Cc1c[nH]c2cc(F)ccc12)C(=O)O (configuration not stated)	1080 µM	> 2500 µM	1240 µM	> 2500 µM	890	> 2500	951 µM	> 2500	1340 µM	> 2500 µM	1940	> 2500	961 µM	> 2500 µM	840 µM	> 2500 µM	502	> 2500	1460 µM	> 2500
Cc1ccc(-n2c3c(c4c(CN)c(O)ccc42)CCc2ccccc2C3=O)cc1	14.6 µM	28.8 µM	2.66 µM	8.44 µM	12.5	28.5	5.5 µM	18.9	2.33 µM	6.51 µM	18.9	39.3	19.7 µM	38 µM	3 µM	8.87 µM	10.2	22.5	14.8 µM	29.2
S=C1SCN(C2CCCCCCCCCCC2)CN1C1CCCCCCCCCCC1		> 100 µM		> 100 µM		> 100		> 100		> 100 µM		> 100		> 100 µM		> 100 µM		> 100		> 100
CNC(=S)N(C1CCCCC1)C1CCCCC1		> 100 µM		> 100 µM		> 100		> 100		> 100 µM		> 100		> 100 µM		> 100 µM		> 100		> 100
CN(C)C1C(=O)C(C(N)=O)=C(O)C2(O)C(=O)C3=C(O)c4c(O)cccc4C(C)(O)C3CC12 (configuration not stated)	26.1 µM and > 100 µM	63.8 µM and > 100 µM	22.8 µM and 67.5 µM	57.1 µM and > 100 µM		> 100	46.1 µM and > 100 µM	> 100	23.5 µM and > 100 µM	46.5 µM and > 100 µM			15.4 µM and > 100 µM	34.9 µM and > 100 µM	21 µM and > 100 µM	36.8 µM and > 100 µM			26.2 µM and > 100 µM	> 100
O=C(Nc1ccc(-n2ccc3c(NC(=O)c4ccccc4)nccc32)cc1)c1ccc(N2CCOCC2)c(C(F)(F)F)c1	0.364 µM		0.44 µM	> 100 µM	0.198	29.9	0.43 µM	> 68.2	0.0421 µM	> 100 µM	0.518	13.9	0.115 µM	56.2 µM	0.102 µM	41.8 µM	0.0621	1.7	4.07 µM	> 60.9
C=C1C(=O)O[C@H]2[C@H]1CC/C(Cn1cc(-c3ccsc3)nn1)=C\CC[C@@]1(C)O[C@@H]21	1.76 µM	3.96 µM	1.63 µM	12.3 µM	3.79	16.9	1.93 µM	5.02	2.59 µM	6.9 µM	3.23	18.2	2.96 µM	11 µM	1.85 µM	4.54 µM	9.61	21.5	1.75 µM	3.61
O=c1c(-c2nc3ccccc3[nH]2)cc2ccccc2n1Cc1cn(Cc2ccccc2Cl)nn1	1.66 µM	3.27 µM	8.58 µM	> 100 µM	1.94	4.22	2.65 µM	9.33	2.36 µM	> 100 µM	1.36	3.2	2.56 µM	9.27 µM	1.9 µM	3.93 µM			1.71 µM	3.79
